Measurements from patent publication US10941160B2, “Bromodomain inhibitors” (CELGENE QUANTICEL RESEARCH, INC., priority 2013, dated 2021).
Read-outs that look alike come from different tables or passages of the source. Each block holds one compound with its values, some of them ahead of it.

Experiments:
[1] = system: Raji, human Burkitts lymphoma cells; test: Cell-MTS cellular proliferation assay, Raji; format: cell-based
Protocol: (§1) The Cell-MTS assay is a 7-day plate-based colorimetric assay which quantifies the amount of newly generated NADH in the presence or absence of test compound. The NADH level is used for the quantification of cancer cell proliferation.
(§2) Established cancer cell lines with a variety of driving mutations were obtained from American Type Culture Collection (ATCC) and routinely passaged according to ATCC protocols. For routine assay, these cells were seeded at densities which enabled ˜90% confluence after 7 days of culture. Raji, human Burkitts lymphoma cells, (cMYC) were seeded at 15,000 cells per 96-well. HL-60, human proleukemia cells, (NRAS, p16, p53, c-Myc amplified) were seeded at 5,000 cells per 96-well. NCI-H460, human non-small cell lung cancer cells, (KRAS, PIK3CA, STLK11, p16) were seeded at 3,000 cells per 96-well 24 hr after plating, cells received an 11-point dilution of test compound with final concentration ranges from 100 μM to 2.0 nM. […] At the end of this incubation period, 80 μL of media is removed and 20 μL of CellTiter 96® AQueous Non-Radioactive Cell Proliferation Assay soln (Promega) was added. The cells were incubated until the OD490 was >0.6. IC50 values were calculated using the IDBS XLtit software package and include background subtracted OD490 values and normalization to DMSO controls. Cellular proliferation IC50 values were uploaded and archived using the Chem Biography Platform.

[2] = system: HL-60, human proleukemia cells; test: Cell-MTS cellular proliferation assay, HL-60; format: cell-based
Protocol: as §1, §2

BRD4(BD1) = BRD4(BD1) (Homo sapiens (Human), UniProt O60885); test: In vitro enzyme inhibition assay (BRD4 AlphaScreen, H4-tetraacetyl peptide); format: binding
Protocol: His-tagged BRD4 was cloned, expressed and purified to homogeneity. […] BRD4 binding and inhibition was assessed by monitoring the interaction of biotinylated H4-tetraacetyl peptide (AnaSpec, H4K5/8/12/16(Ac), biotin-labeled) with the target using the AlphaScreen technology (Life Technologies). […] After 20 min incubation at room temp, Alpha streptavidin donor beads and Nickel Chelate acceptor beads were added to a final concentration of 5 μg/mL.
The ability of the compounds disclosed herein to inhibit BRD4 activity was quantified and the respective IC50 value was determined.

[3] = system: NCI-H460, human non-small cell lung cancer cells; test: Cell-MTS cellular proliferation assay, NCI-H460; format: cell-based
Protocol: as §1, §2

[4] = in vitro enzyme inhibition assay, class symbols, read-out: BRD4 IC50

Compound: N-[5-(cyclopropylmethoxy)-4-(7-fluoro-2-methyl-1-oxoisoquinolin-4-yl) pyrimidin-2-yl]methanesulfonamide [Example 158]
- IC50 ([1]; Cell-MTS proliferation, 168 hr, class symbols, read-out: Raji IC50): < 0.5 µM
- IC50 ([2]; Cell-MTS proliferation, 168 hr, class symbols, read-out: HL-60 IC50): < 0.5 µM
- IC50 (BRD4(BD1); read-out: BRD4 IC50): < 500 nM
- IC50 ([3]; 168 hr, class symbols): > 5000 nM

Compound: Cn1cc(-c2cccc(S(N)(=O)=O)c2)c2ccc(F)cc2c1=O [Example 61, 3-(7-fluoro-2-methyl-1-oxoisoquinolin-4-yl) benzenesulfonamide]
- IC50 ([1]; Cell-MTS proliferation, 168 hr, read-out: Raji IC50): 0.5 to 5 µM
- IC50 ([2]; Cell-MTS proliferation, 168 hr, read-out: HL-60 IC50): 0.5 to 5 µM
- IC50 (BRD4(BD1); in vitro enzyme inhibition assay, read-out: BRD4 IC50): < 500 nM

Compound: CCNS(=O)(=O)c1cccc(-c2cn(C)c(=O)c3ccc(F)cc23)c1 [Example 49, N-ethyl-3-(6-fluoro-2-methyl-1-oxoisoquinolin-4yl) benzenesulfonamide]
- IC50 ([1]; Homo sapiens, Raji, 168 h, read-out: Raji IC50 (μM)): 0.5 to 5 µM
- IC50 ([2]; Homo sapiens, HL-60, 168 h, read-out: HL-60 IC50 (μM)): 0.5 to 5 µM
- IC50 (BRD4(BD1)): 500 to 5000 nM

Compound: COc1ccc(-c2cn(C)c(=O)c3cnccc23)cc1S(=O)(=O)NCc1ccccc1 [Example 54, N-benzyl-2-methoxy-5-(2-methyl-1-oxo-2,7-naphthyridin-4-yl) benzenesulfonamide]
- IC50 ([1]; Homo sapiens, Raji, Cell-MTS proliferation, 168 hr, read-out: Raji IC50): > 5 µM
- IC50 ([2]; Homo sapiens, HL-60, Cell-MTS proliferation, 168 hr, read-out: HL-60 IC50): 0.5 to 5 µM
- IC50 ([3]; Homo sapiens, NCI-H460, 168 hr): > 5000 nM

Next, values leading:

- IC50 ([1]; Homo sapiens, Raji, Cell-MTS proliferation, 168 hr, class symbols, read-out: Raji IC50): < 0.5 µM
- IC50 ([2]; Homo sapiens, HL-60, Cell-MTS proliferation, 168 hr, class symbols, read-out: HL-60 IC50): < 0.5 µM
- IC50 (BRD4(BD1); [4]): < 500 nM
- IC50 ([3]; Homo sapiens, NCI-H460, 168 hr, class symbols): > 5000 nM
Compound: Cn1cc(-c2cc(S(C)(=O)=O)ncc2OCC2CC2)c2ccc(F)cc2c1=O [Example 203, 4-[5-(cyclopropylmethoxy)-2-methylsulfonylpyridin-4-yl]-7-fluoro-2-methylisoquinolin-1-one]

- IC50 (BRD4(BD1); [4]): < 500 nM
Compound: Cc1cc(-c2cc(OS(N)(=O)=O)ccc2OCC2CC2)cn(C)c1=O [Example 215, [4-(cyclopropylmethoxy)-3-(1,5-dimethyl-6-oxopyridin-3-yl)phenyl] sulfamate]

- IC50 (BRD4(BD1); [4]): < 500 nM
Compound: Cn1cc(-c2cc(OS(N)(=O)=O)ccc2OCC2CC2)c2ccccc2c1=O [Example 214, [4-(cyclopropylmethoxy)-3-(2-methyl-1-oxoisoquinolin-4-yl)phenyl] sulfamate]
